Experimental data published in patent publication US12318365B2, “Inhibition of dipeptide repeat proteins” (ALS Therapy Development Institute, priority 2019, dated 2025).
No end group written: not given here.

What was measured:
[1] = system: asymmetrical arginine methylation of NSC-34 cells; assay: Cellular asymmetric arginine methylation (800/700 fluorescence readout) in NSC-34 cells; assay type: cell-based, Mouse
Description: On Day 0, NSC-34 Cells were plated in 48 wells of a 96 well plate, and CHO cells were plated in the other 48 wells of the same 96-well plate. NSC-34 cells were plated in DMEM/High glucose media. CHO cells were plated in Ham's F-12K (Kaighn's) Medium. Both cell lines were incubated overnight to reach approximately 50% confluency.
On Day 1, 24 wells of the NSC-34 cells and 24 wells of the CHO cells were treated with the following concentrations of MS023: 1 μM, 3 μM, 6 μM, 10 μM, 30 μM, and 60 μM. The cells were then incubated overnight.
On Day 2, 18 wells of the untreated NSC-34 cells and 18 wells of the untreated CHO cells were treated with the same concentrations of MS023 as those on Day 1. This left 6 wells of each cell line that never received MS023. Once MS023 was added, the cells were incubated overnight.
On Day 3, all media in the 96-well plate was removed and the cells were fixed with 3.7% Paraformaldehyde (PFA). Cells were then washed and permeabilized with 1×PBS/0.1% Triton X-100.
After removing the PBS/Triton wash, Odyssey Blocking Buffer (LI-COR, 927-40100) was applied to all wells and the plate sat at room temperature with moderate shaking for 90 minutes. After 90 minutes, the blocking buffer was removed and the cells were treated with a 1:500 dilution of the Anti-Asymmetric Di-Methyl Arginine Motif primary antibody (Cell Signaling Technology, #13522). Incubation with the primary antibody continued overnight at 4 degrees Celsius with no shaking.
On Day 4, the primary antibody solution was removed from the plate, and the cells were washed with 1×PBS/0.1% Tween 20. After washing, cells were given a secondary antibody mixture containing a 1:1000 dilution of IRDye 800 CW Anti-Rabbit antibody (LI-COR, 926-32211) and a 1:500 dilution of Cell Tag 700 Stain (LI-COR, 926-41090). The secondary antibody mixture remained on cells for 60 minutes with gentle shaking and protected from light.
(§1) After 60 minutes, the secondary antibody mixture was removed and the cells were again washed with 1×PBS/0.1% Tween 20. All wash buffer was then removed, and the plate was gently patted dry to remove excess solution. The plate was then read on the LI-COR Odyssey Classic Imaging System which provides results based on fluorescence. In this experiment, fluorescence occurred as a result of cellular, asymmetric arginine methylation. MS023 was given to cells for either 24 or 48 hours, with expectation for it to reduce cellular, asymmetric arginine methylation. Cell number per well was accounted for using the Cell Tag 700 Stain, which fluorescently labels total protein levels in a cell. To this effect, fluorescence from asymmetrical arginine methylation per well (800) was divided by fluorescence from the total protein level per well (700) to produce an outcome of 800/700.
On Day 1, 24 wells of the NSC-34 cells and 24 wells of the CHO cells were treated with the following concentrations of MS049: 0.2 μM, 1 μM, 2 μM, 10 μM, 20 μM, and 100 μM. The cells were then incubated overnight.
On Day 2, 18 wells of the untreated NSC-34 cells and 18 wells of the untreated CHO cells were treated with the same concentrations of MS049 as those on Day 1. This left 6 wells of each cell line that never received MS049. Once MS049 was added, the cells were incubated overnight.
as §1, with “MS049” for “MS023”, “To this effect, fluorescence from asymmetrical arginine methylation per well (800) was divided by fluorescence from the total protein level per well (700) to produce an outcome of 800/700.” left out

[2] = molecular target: T1, Recombinant PRMT1 protein (Homo sapiens, UniProt Q99873); assay: In-vitro arginine methylation assay with recombinant PRMT1 and SAM; assay type: biochemical; conditions: 37 degrees Celsius, 2 hours, no methylation without PRMT1 or SAM
T1 construct: purchased Active Motif 31411
Description: To assess interaction between PRMT1 and GR15, (SEQ ID NO: 1) an in-vitro methylation assay system was developed. This system consists of a mixture of recombinant PRMT1 enzyme, S-(5′-Adenosyl)-L-methionine iodide, (SAM) as a methyl donor, and potential substrate of PRMT1 activity. For this experiment, 11 tubes were prepared, each containing various amount of the following components; • Recombinant PRMT1 protein (Active Motif, Cat. 31411) • S-(5′-Adenosyl)-L-methionine iodide, (SAM) (Sigma-Aldrich Cat. A4377) • GR15(SEQ ID NO: 1) • PR15(SEQ ID NO: 2) • SOD1 from human erythrocytes (S9636-1KU)
These constituents were mixed in a 0.5 ml flat-capped tubes (Thermo Fisher Scientific, AB0350) according to Table 4 (all values are in microliters (μl)).
Once all tubes were prepared, each tube was gently tapped to ensure mixture, and the tubes were placed in an incubator at 37 degrees Celsius for 2 hours. After 2 hours, the reaction mixture was stopped with the addition of 10 μl of NuPage LDS Sample Buffer (Thermo Fisher Scientific, NP0007). The tubes were gently tapped to ensure mixture, and then boiled for 5 minutes in a 95 degrees Celsius water bath. […]
The gel was then transferred using the iBlot apparatus and an iBlot 2 Nitrocellulose Mini Stack (Thermo Fisher Scientific, IB23002). […] Following wash steps, the membrane was read on the LI-COR Odyssey Classic Imaging System.

T1 sequence (Q99873 whole entry): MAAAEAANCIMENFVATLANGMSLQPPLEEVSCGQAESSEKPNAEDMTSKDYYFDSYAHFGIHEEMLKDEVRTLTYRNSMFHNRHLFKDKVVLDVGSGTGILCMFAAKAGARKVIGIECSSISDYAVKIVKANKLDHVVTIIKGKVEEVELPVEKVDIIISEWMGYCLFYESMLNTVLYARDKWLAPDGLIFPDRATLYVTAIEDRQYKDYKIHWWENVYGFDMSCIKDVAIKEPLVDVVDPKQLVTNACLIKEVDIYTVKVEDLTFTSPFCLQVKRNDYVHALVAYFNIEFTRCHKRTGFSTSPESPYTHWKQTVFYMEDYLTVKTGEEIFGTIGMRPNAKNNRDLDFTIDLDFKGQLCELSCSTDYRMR

Row | Compound | decrease of asymmetrical arginine methylation ([1]; 24 hour treatment, 1 μM, vs untreated cells) | decrease of asymmetrical arginine methylation ([1]; 24 hour treatment, 60 μM) [%] | decrease of asymmetrical arginine methylation ([1]; 48 hour treatment, 1 μM) [%] | decrease of asymmetrical arginine methylation ([1]; 48 hour treatment, 60 μM) [%] | asymmetric methylation of the peptide as substrate (anti-H4R3me2a detection) [2]
1 | CC(C)Oc1ccc(-c2c[nH]cc2CN(C)CCN)cc1 [MS023] | approximately 13% | ~45 | ~33 | ~75 | –
2 | GRGRGRGRGRGRGRGRGRGRGRGRGRGRGR [GR15] | – | – | – | – | is asymmetrically methylated by PRMT1
